Here are results for 1 compound from ChEMBL document CHEMBL1136523, “A novel estrogen receptor ligand template” (Bioorg Med Chem Lett, 2003).

The target in experiment [1] is Estrogen receptor (Homo sapiens, UniProt Q92731+P03372). The experiment is described as follows: Percent agonistic activity for estrogen-induced pS2 expression in MCF-7 cells. In kind it is functional, cell-based. As to conditions: mcf7.
In the next experiment the target is Estrogen receptor beta (Homo sapiens, UniProt Q92731).
For experiment [2], the target named is T1, Estrogen receptor (Homo sapiens, UniProt P03372).
T1 sequence (P03372 whole entry): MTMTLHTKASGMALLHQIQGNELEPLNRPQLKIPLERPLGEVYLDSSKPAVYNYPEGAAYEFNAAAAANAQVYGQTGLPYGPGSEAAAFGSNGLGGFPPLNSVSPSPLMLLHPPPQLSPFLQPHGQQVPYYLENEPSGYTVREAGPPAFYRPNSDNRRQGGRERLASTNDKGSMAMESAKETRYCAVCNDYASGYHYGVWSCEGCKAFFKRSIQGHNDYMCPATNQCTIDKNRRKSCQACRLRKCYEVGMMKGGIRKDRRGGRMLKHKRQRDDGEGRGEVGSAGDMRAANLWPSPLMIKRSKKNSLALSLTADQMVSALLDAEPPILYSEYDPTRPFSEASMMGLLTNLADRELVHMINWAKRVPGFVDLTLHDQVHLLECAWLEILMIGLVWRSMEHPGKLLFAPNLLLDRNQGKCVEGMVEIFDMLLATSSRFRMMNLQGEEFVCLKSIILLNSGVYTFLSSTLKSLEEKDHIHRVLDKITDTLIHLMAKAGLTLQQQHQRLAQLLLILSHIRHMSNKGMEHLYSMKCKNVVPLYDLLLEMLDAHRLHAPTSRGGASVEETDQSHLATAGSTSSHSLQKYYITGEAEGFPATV
The experiment is described as follows: In vitro binding affinity for estrogen receptor alpha.

Some results are limits rather than exact numbers.

Estrogen receptor beta, sequence (Q92731 whole entry): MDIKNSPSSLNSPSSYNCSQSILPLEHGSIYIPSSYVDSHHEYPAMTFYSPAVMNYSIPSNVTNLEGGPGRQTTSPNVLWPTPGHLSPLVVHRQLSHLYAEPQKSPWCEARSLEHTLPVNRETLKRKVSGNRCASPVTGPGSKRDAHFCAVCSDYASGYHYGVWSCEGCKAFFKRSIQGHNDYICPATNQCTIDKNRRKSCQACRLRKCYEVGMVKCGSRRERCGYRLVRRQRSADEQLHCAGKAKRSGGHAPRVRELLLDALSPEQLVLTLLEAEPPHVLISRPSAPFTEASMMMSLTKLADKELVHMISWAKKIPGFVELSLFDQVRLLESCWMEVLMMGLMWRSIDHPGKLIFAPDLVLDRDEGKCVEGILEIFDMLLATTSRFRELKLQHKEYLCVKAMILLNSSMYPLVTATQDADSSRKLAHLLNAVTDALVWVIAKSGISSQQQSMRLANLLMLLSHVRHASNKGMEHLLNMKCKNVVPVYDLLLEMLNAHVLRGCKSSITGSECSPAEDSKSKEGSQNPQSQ
Description for Estrogen receptor beta: In vitro binding affinity for estrogen receptor beta

At Estrogen receptor [1], `OC[C@@]12CC=C[C@@H](C1)[C@H](c1ccc(O)cc1)CC2` registered an EC50 of under 10 nM. Moreover, the IC50 came to 75 nM against Estrogen receptor beta and 550 nM at Estrogen receptor [2].
